Experiments:
Format in all cases: cell-based, human
HNSCC tumor tissue [1] = assay: FACS analysis for CD3 and CD8 (CD8+ T cell infiltration) in tumor microenvironment platform; conditions: vs IgG control
Method: The effect of Pembrolizumab and Nivolumab on CD8^+ T cell tumor infiltration was then evaluated. Tumor sections from the same patient cultured for 72 hours in the tumor microenvironment platform were treated with Pembrolizumab, Nivolumab, or IgG as control and stained for H&E, Ki67, Caspase 3, and CD8 at day 3 in culture (T3). Baseline staining was determined at TO. […] To further elucidate the effects of the anti-PD-1 antibodies, FACS analysis was performed on tumor tissue from patient 2941 and patient 2942 treated with either Pembrolizumab, Nivolumab, or IgG control. […] By contrast, there was no effect of either Pembrolizumab or Nivolumab on CD8^+ T cell infiltration for patient 2942, further highlighting the differential response between individuals to PD-1 blockade. CD8^+ T cell infiltration was evaluated in the tumor microenvironment platform with tumor tissue from the same patient, and comparisons for control vs Nivo, control vs Pembro, Nivo vs Pembro, and control vs Nivo vs Pembro for multiple patients are shown in FIG. 6 (each line represents results from the tumor microenvironment platform cultured with tumor tissue from a single individual).

HNSCC tumor tissue [2] = assay: M-score clinical outcome predictor: tumor microenvironment platform assays (WST-1, LDH, ATP, glucose uptake, Caspase 3/8, Ki67, H&E) input into machine-trained algorithm; set-up: scale not given here
PBNCs = assay: FACS analysis for CD25, CD127 and FOXP3 expression, PBNCs
Method: (§1) The effect of treatment with Nivolumab and Pembrolizumab on CD25, CD127, and FOXP3 expression was then evaluated. Tumor sections or PBNCs from the same patient cultured for 3 days in the tumor microenvironment platform were treated with Pembrolizumab, Nivolumab, or IgG control for one day followed by FACS analysis for expression of CD25, CD127, and FOXP3.

Tumor sections = assay: FACS analysis for CD25, CD127 and FOXP3 expression, tumor sections
Method: as §1

**Q.** What does the source list for Pembrolizumab?
**A.** CD8^+ T cell infiltration (FACS) (HNSCC tumor tissue [1]; patient 2941): but not Pembrolizumab; CD8^+ T cell infiltration (FACS) (HNSCC tumor tissue [1]; patient 2942): no effect; M-score (HNSCC tumor tissue [2]; Patient ID 2916): 8; M-score (HNSCC tumor tissue [2]; Patient ID 2926): 28; M-score (HNSCC tumor tissue [2]; Patient ID 2939): 4; M-score (HNSCC tumor tissue [2]; Patient ID 2942): 18; M-score (HNSCC tumor tissue [2]; Patient ID 2950): 13; M-score (HNSCC tumor tissue [2]; Patient ID 2963): 9; M-score (HNSCC tumor tissue [2]; Patient ID 2979): 27; M-score (HNSCC tumor tissue [2]; Patient ID 2980): 19; CD25^+/FOXP3^− PBMCs (% total cells) (PBNCs; Non-Responder, control 3.67): 2.8 % total cells; CD25^+/CD127^+ PBMCs (% total cells) (PBNCs; Non-Responder, control 14.6): 25.6 % total cells; CD25^+/CD127^− PBMCs (% total cells) (PBNCs; Non-Responder, control 15.1): 7.71 % total cells; CD25^−/FOXP3^− PBMCs (% total cells) (PBNCs; Non-Responder, control 18.2): 10.9 % total cells; CD25^+/FOXP3^+ PBMCs (% total cells) (PBNCs; Non-Responder, control 22.1): 29.1 % total cells; CD25^−/CD127^+ PBMCs (% total cells) (PBNCs; Non-Responder, control 26.2): 45.3 % total cells; CD25^−/CD127^− PBMCs (% total cells) (PBNCs; Non-Responder, control 44.1): 21.4 % total cells; CD25^− FOXP3^+ PBMCs (% total cells) (PBNCs; Non-Responder, control 56.0): 57.2 % total cells; CD25^+/FOXP3^− PBMCs (% total cells) (PBNCs; Responder, control 3.04): 3.94 % total cells; CD25^+/CD127^− PBMCs (% total cells) (PBNCs; Responder, control 11.7): 7.77 % total cells; CD25^+/CD127^+ PBMCs (% total cells) (PBNCs; Responder, control 16.8): 20.4 % total cells; CD25^+/FOXP3^+ PBMCs (% total cells) (PBNCs; Responder, control 21.7): 22.1 % total cells; CD25^−/FOXP3^− PBMCs (% total cells) (PBNCs; Responder, control 23.2): 20.0 % total cells; CD25^−/CD127^+ PBMCs (% total cells) (PBNCs; Responder, control 24.8): 46.4 % total cells; CD25^−/CD127^− PBMCs (% total cells) (PBNCs; Responder, control 46.6): 25.4 % total cells; CD25^− FOXP3^+ PBMCs (% total cells) (PBNCs; Responder, control 52.1): 54.0 % total cells; CD25^+/FOXP3^− Tumor (% total cells) (Tumor sections; Non-Responder, control 6.52): 5.03 % total cells; CD25^+/CD127^+ Tumor (% total cells) (Tumor sections; Non-Responder, control 19.6): 17.8 % total cells; CD25^−/CD127^− Tumor (% total cells) (Tumor sections; Non-Responder, control 22.1): 24.9 % total cells; CD25^−/FOXP3^− Tumor (% total cells) (Tumor sections; Non-Responder, control 23.6): 10.7 % total cells; CD25^+/CD127^− Tumor (% total cells) (Tumor sections; Non-Responder, control 25.4): 24.3 % total cells; CD25^−/CD127^+ Tumor (% total cells) (Tumor sections; Non-Responder, control 33.0): 32.9 % total cells; CD25^+/FOXP3^+ Tumor (% total cells) (Tumor sections; Non-Responder, control 34.4): 35.8 % total cells; CD25^− FOXP3^+ Tumor (% total cells) (Tumor sections; Non-Responder, control 35.5): 48.4 % total cells; CD25^−/CD127^− Tumor (% total cells) (Tumor sections; Responder, control 12.2): 18.4 % total cells; CD25^− FOXP3^+ Tumor (% total cells) (Tumor sections; Responder, control 18.9): 42.5 % total cells; CD25^−/FOXP3^− Tumor (% total cells) (Tumor sections; Responder, control 20.3): 6.67 % total cells; CD25^+/CD127^− Tumor (% total cells) (Tumor sections; Responder, control 23.0): 17.7 % total cells; CD25^−/CD127^+ Tumor (% total cells) (Tumor sections; Responder, control 24.3): 31.2 % total cells; CD25^+/FOXP3^− Tumor (% total cells) (Tumor sections; Responder, control 25.7): 5.83 % total cells; CD25^+/FOXP3^+ Tumor (% total cells) (Tumor sections; Responder, control 35.1): 45.0 % total cells; CD25^+/CD127^+ Tumor (% total cells) (Tumor sections; Responder, control 40.5): 32.6 % total cells; functional Treg cells (CD25, CD127, FOXP3 FACS) (Tumor sections; platform containing tumor tissue): patient sample-dependent functional Treg cell depression

Reference: US20200333324A1, “METHOD OF PREDICTING CLINICAL OUTCOME OF ANTICANCER AGENTS” (MITRA RXDX, INC., priority 2017, published 2020)
